From patent US9211310B2, “Use of a Chinese medicine composition in preparing medicaments for treating secondary prevention of myocardial infarction” (TASLY PHARMACEUTICAL GROUP CO., LTD, priority 2010, dated 2015)

Test system: patients after acute myocardial infarction
Assay: Angina pectoris score, total and single (frequency/attack times, duration, pain degree, dose of nitroglycerin), same clinical trial
Format: in vivo, human
From the text: In order to better understand the present invention, a multi-center, randomized, double-blind, double-dummy and positive drug controlled trial had been conducted. 3508 patients who were in accordance with the diagnostic standards of AMI for 28 days to 2 years and differentiated as Qi deficiency and blood stagnation syndrome by TCM were studied. 0.5 g Chinese medicine composition prepared by the method of EXAMPLE 1 (Coded as QSYQ) was administrated half an hour after meal, 3 times per day. Aspirine was used as a positive drug. The patients were treated for 1 year and observed for 6 months.
They included the overall survival time, angina pectoris score, TCM symptom score and life quality score, where angina pectoris score, TCM symptom score and life quality score were evaluated at randomization, in 1st, 3rd, 6th, 9th, 12th month after treatment and 18th month after follow-up.
(§1) Total angina pectoris score was described on every observation period and the change of observation in comparison with baseline. T-test or Wilcoxon rank sum test were used for inter-group comparison. Grade of total score was evaluated on every observation and Wilcoxon rank sum test was used for inter-group comparison. T-test and Pairing signed rank sum test were used for analyzing the change of total score on every observation between groups in comparison with the baseline.
(§2) Single angina pectoris score was depicted on every observation time-point and the change of observation in comparison with baseline. Wilcoxon rank sum test was used for inter-group comparison. Pairing signed rank sum test was used for analyzing the change of total score on every observation between groups in comparison with the baseline.
as §1, with “comparison with the baseline. T-test” for “comparison with baseline. T-test”
as §2, with “described” for “depicted”

CC(=O)Oc1ccccc1C(=O)O [Control group, aspirine]
attack times score, patients (%) (6 months after treatment, score 6, FAS): (0.06%) | attack times score, patients (%) (6 months after treatment, score 6, PP): (0.07%) | change of attack times score, patients (%) (6 months after treatment-baseline, change 0, FAS): (57.95%) | change of attack times score, patients (%) (6 months after treatment-baseline, change 0, PP): (56.80%) | change of attack times score, patients (%) (6 months after treatment-baseline, change 1, FAS): (2.47%) | change of attack times score, patients (%) (6 months after treatment-baseline, change 1, PP): (1.92%) | change of attack times score, patients (%) (6 months after treatment-baseline, change −1, FAS): (15.20%) | change of attack times score, patients (%) (6 months after treatment-baseline, change −1, PP): (16.07%) | change of attack times score, patients (%) (6 months after treatment-baseline, change −2, FAS): (18.70%) | change of attack times score, patients (%) (6 months after treatment-baseline, change −2, PP): (19.92%) | change of attack times score, patients (%) (6 months after treatment-baseline, change −3, FAS): (0.92%) | change of attack times score, patients (%) (6 months after treatment-baseline, change −3, PP): (1.10%) | change of attack times score, patients (%) (6 months after treatment-baseline, change −4, FAS): (1.78%) | change of attack times score, patients (%) (6 months after treatment-baseline, change −4, PP): (1.92%) | change of attack times score, patients (%) (6 months after treatment-baseline, change −5, FAS): (0.00%) | change of attack times score, patients (%) (6 months after treatment-baseline, change −5, PP): (0.00%) | change of attack times score, patients (%) (6 months after treatment-baseline, change −6, FAS): (0.34%) | change of attack times score, patients (%) (6 months after treatment-baseline, change −6, PP): (0.27%) | attack times score, patients (%) (9 months after treatment, score 0, FAS): (47.31%) | attack times score, patients (%) (9 months after treatment, score 0, PP): (49.06%) | attack times score, patients (%) (9 months after treatment, score 1, FAS): (20.30%) | attack times score, patients (%) (9 months after treatment, score 1, PP): (21.62%) | attack times score, patients (%) (9 months after treatment, score 2, FAS): (30.22%) | attack times score, patients (%) (9 months after treatment, score 2, PP): (28.34%) | attack times score, patients (%) (9 months after treatment, score 4, FAS): (2.06%) | attack times score, patients (%) (9 months after treatment, score 4, PP): (0.83%) | attack times score, patients (%) (9 months after treatment, score 6, FAS): (0.11%) | attack times score, patients (%) (9 months after treatment, score 6, PP): (0.14%) | attack times score, patients (%) (12 months after treatment, score 0, FAS): (52.12%) | attack times score, patients (%) (12 months after treatment, score 0, PP): (55.03%) | attack times score, patients (%) (12 months after treatment, score 1, FAS): (22.02%) | attack times score, patients (%) (12 months after treatment, score 1, PP): (23.88%) | attack times score, patients (%) (12 months after treatment, score 2, FAS): (23.91%) | attack times score, patients (%) (12 months after treatment, score 2, PP): (20.53%) | attack times score, patients (%) (12 months after treatment, score 4, FAS): (1.89%) | attack times score, patients (%) (12 months after treatment, score 4, PP): (0.56%) | attack times score, patients (%) (12 months after treatment, score 6, FAS): (0.06%) | change of attack times score, patients (%) (12 months after treatment-baseline, change 0, FAS): (45.61%) | change of attack times score, patients (%) (12 months after treatment-baseline, change 0, PP): (41.86%) | change of attack times score, patients (%) (12 months after treatment-baseline, change 1, FAS): (2.07%) | change of attack times score, patients (%) (12 months after treatment-baseline, change 1, PP): (1.33%) | change of attack times score, patients (%) (12 months after treatment-baseline, change 2, FAS): (1.72%) | change of attack times score, patients (%) (12 months after treatment-baseline, change 2, PP): (1.19%) | change of attack times score, patients (%) (12 months after treatment-baseline, change 3, FAS): (0.06%) | change of attack times score, patients (%) (12 months after treatment-baseline, change 4, FAS): (0.17%) | change of attack times score, patients (%) (12 months after treatment-baseline, change 4, PP): (0.14%) | change of attack times score, patients (%) (12 months after treatment-baseline, change −1, FAS): (22.89%) | change of attack times score, patients (%) (12 months after treatment-baseline, change −1, PP): (25.44%) | change of attack times score, patients (%) (12 months after treatment-baseline, change −2, FAS): (23.01%) | change of attack times score, patients (%) (12 months after treatment-baseline, change −2, PP): (25.02%) | change of attack times score, patients (%) (12 months after treatment-baseline, change −3, FAS): (0.86%) | change of attack times score, patients (%) (12 months after treatment-baseline, change −3, PP): (1.05%) | change of attack times score, patients (%) (12 months after treatment-baseline, change −4, FAS): (3.16%) | change of attack times score, patients (%) (12 months after treatment-baseline, change −4, PP): (3.56%) | change of attack times score, patients (%) (12 months after treatment-baseline, change −5, FAS): (0.06%) | change of attack times score, patients (%) (12 months after treatment-baseline, change −5, PP): (0.07%) | change of attack times score, patients (%) (12 months after treatment-baseline, change −6, FAS): (0.40%) | change of attack times score, patients (%) (12 months after treatment-baseline, change −6, PP): (0.35%) | attack times score, patients (%) (Baseline, score 0, FAS): (27.54%) | attack times score, patients (%) (Baseline, score 0, PP): (26.99%) | attack times score, patients (%) (Baseline, score 1, FAS): (9.06%)
